What was measured:
Type in all cases: physicochemical
[1] = Approximate solubility in single solvents
Excerpt: (§1) In some embodiments, Compound I phosphate Form I, once formed, e.g., via the reactive crystallization methods disclosed herein, may be recrystallized from a variety of single solvents or binary solvent systems (e.g., solvent/anti-solvent systems) to promote desired physical characteristics such as crystal size. Recrystallization of Compound I phosphate Form I may occur with or without the addition of Compound I phosphate Form I seed material. The single solvents and binary solvent systems in which Compound I phosphate Form I may be recrystallized include, but are not limited to, MeOH, MeOH/EtOAc, DMA/MeCN, DMAc/toluene, DMF/MeCN, DMAc/MeCN, DMF/EtOAc, DMF/toluene, DMSO/MeCN, DMSO/MeCN, DMSO/IPA, NMP/MeCN, NMP/IPA, and NMP/EtOAc. A summary of the approximate solubility of Compound I phosphate Form I in various single solvents and binary solvent systems is provided in Tables I and II, respectively.

[2] = Approximate solubility in 1:1 (v/v) binary solvents
Excerpt: as §1

[3] = Kinetic aqueous solubility / solubility in water of salt and co-crystal forms; details: aqueous
[4] = Solid-state chemical stability at various storage conditions
[5] = Dissolution in 50 mM sodium acetate solution, pH 5; details: pH of 5
Procedure: The dissolution of […] and […] was also evaluated in a 50 mM sodium acetate solution at a pH of 5 (FIG. 92).

[6] = Relative stability of solid forms (competitive slurries); details: statement in words

In the case of `Cc1noc(C)c1-c1cc(C(O)(c2ccccn2)c2ccccn2)c2nc(C3CC3)[nH]c2c1` [Compound I phosphate Form I, (2-cyclopropyl-6-(3,5-dimethylisoxazol-4-yl)-1H-benzo[d]imidazol-4-yl)di(pyridin-2-yl)methanol], the “Approximate Solubility” value ([1]; 1,4-dioxane, 20-80° C.) is reported as “remained a slurry”, the “Approximate Solubility” value ([1]; 1-Propanol, 20-80° C.) is reported as “remained a slurry” and the “Approximate Solubility” value ([1]; 2-Butanol, 20-80° C.) is reported as “remained a slurry”. For the same compound, the “Approximate Solubility” value ([1]; 2-MeTHF, 20° C.) was 0.64 mg-solid/ml-solvent, the “Approximate Solubility” value ([1]; 2-Propanol/IPA, 20° C.) was 1.02 mg-solid/ml-solvent and the “Approximate Solubility” value ([1]; Acetic Acid, 20° C.) was roughly 190 mg-solid/ml-solvent. The “Approximate Solubility” value ([1]; Acetic Acid, 50° C.) was greater than 190 mg-solid/ml-solvent, the “Approximate Solubility” value ([1]; Acetic Acid, 80° C.) was >>190 mg-solid/ml-solvent and the “Approximate Solubility” value ([1]; Acetone, 20° C.) was 0.48 mg-solid/ml-solvent. For the same compound, the “Approximate Solubility” value ([1]; Acetonitrile, 20° C.) was 0.23 mg-solid/ml-solvent, the “Approximate Solubility” value ([1]; DCM (form changes), 20° C.) was 1.54 mg-solid/ml-solvent and the “Approximate Solubility” value ([1]; DMAc, 50° C.) was greater than 78 mg-solid/ml-solvent. The “Approximate Solubility” value ([1]; DMAc, 80° C.) was >>78 mg-solid/ml-solvent, the “Approximate Solubility” value ([1]; DMF, 50° C.) was less than 70 mg-solid/ml-solvent and the “Approximate Solubility” value ([1]; DMF, 80° C.) was greater than 70 mg-solid/ml-solvent. For the same compound, the “Approximate Solubility” value ([1]; DMSO, 50° C.) was greater than 185 mg-solid/ml-solvent, the “Approximate Solubility” value ([1]; DMSO, 80° C.) was >>185 mg-solid/ml-solvent and the “Approximate Solubility” value ([1]; EtOH/water, 20° C.) was 22.7 mg-solid/ml-solvent. The “Approximate Solubility” value ([1]; Ethanol, 20° C.) was 2.46 mg-solid/ml-solvent, the “Approximate Solubility” value ([1]; Ethyl acetate, 20° C.) was 0.45 mg-solid/ml-solvent and the “Approximate Solubility” value ([1]; Heptane, 20° C.) was “<LOD”. For the same compound, the “Approximate Solubility” value ([1]; Heptane, cell spans the 50° C. and 80° C. columns) was “remained a slurry”, the “Approximate Solubility” value ([1]; Hexane, 20-80° C.) was “API adhered to vial walls” and the “Approximate Solubility” value ([1]; Isopropyl acetate, 20° C.) was 0.37 mg-solid/ml-solvent. For the same compound, the “Approximate Solubility” value ([1]; MEK, 20° C.) was 2.14 mg-solid/ml-solvent, the “Approximate Solubility” value ([1]; MIBK, 20° C.) was 0.31 mg-solid/ml-solvent and the “Approximate Solubility” value ([1]; MTBE, 20° C.) was 0.16 mg-solid/ml-solvent. The “Approximate Solubility” value ([1]; Methanol, 20° C.) was 12.56 mg-solid/ml-solvent, the “Approximate Solubility” value ([1]; NMP, 50° C.) was greater than 135 mg-solid/ml-solvent and the “Approximate Solubility” value ([1]; NMP, 80° C.) was >>135 mg-solid/ml-solvent. The “Approximate Solubility” value ([1]; THF, 20° C.) was 0.48 mg-solid/ml-solvent, the “Approximate Solubility” value ([1]; Toluene, 20° C.) was 1.34 mg-solid/ml-solvent and the “Approximate Solubility” value ([1]; Water, 20° C.) was 12.16 mg-solid/ml-solvent. For the same compound, the “Approximate Solubility” value ([2]; DMAc/2-MeTHF 1:1 (v/v), 50° C.) was roughly 17.2 mg-solid/ml-solvent, the “Approximate Solubility” value ([2]; DMAc/Acetone 1:1 (v/v), 50° C.) was roughly 11.3 mg-solid/ml-solvent and the “Approximate Solubility” value ([2]; DMAc/EtOAc 1:1 (v/v), 80° C.) was roughly 10.8 mg-solid/ml-solvent. For the same compound, the “Approximate Solubility” value ([2]; DMAc/IPA 1:1 (v/v), 80° C.) was roughly 21 mg-solid/ml-solvent, the “Approximate Solubility” value ([2]; DMAc/IPAc 1:1 (v/v), 50° C.) was roughly 7.7 mg-solid/ml-solvent and the “Approximate Solubility” value ([2]; DMAc/MIBK 1:1 (v/v), 50° C.) was roughly 15 mg-solid/ml-solvent. For the same compound, the “Approximate Solubility” value ([2]; DMAc/MeCN 1:1 (v/v), 50° C.) was roughly 11.5 mg-solid/ml-solvent, the “Approximate Solubility” value ([2]; DMF/2-MeTHF 1:1 (v/v), 50° C.) was roughly 14.3 mg-solid/ml-solvent and the “Approximate Solubility” value ([2]; DMF/Acetone 1:1 (v/v), 50° C.) was roughly 19.5 mg-solid/ml-solvent. The “Approximate Solubility” value ([2]; DMF/EtOAc 1:1 (v/v), 50° C.) was roughly 10.8 mg-solid/ml-solvent, the “Approximate Solubility” value ([2]; DMF/IPA 1:1 (v/v), 50° C.) was roughly 14 mg-solid/ml-solvent and the “Approximate Solubility” value ([2]; DMF/IPAc 1:1 (v/v), 50° C.) was roughly 13.7 mg-solid/ml-solvent. For the same compound, the “Approximate Solubility” value ([2]; DMF/MIBK 1:1 (v/v), 80° C.) was roughly 6 mg-solid/ml-solvent, the “Approximate Solubility” value ([2]; DMF/MIBK 1:1 (v/v), cell spans the 20° C. and 50° C. columns) was “remained a thin slurry” and the “Approximate Solubility” value ([2]; DMF/MeCN 1:1 (v/v), 50° C.) was roughly 11 mg-solid/ml-solvent. The “Approximate Solubility” value ([2]; DMSO/2-MeTHF 1:1 (v/v), 20° C.) was greater than 51.5 mg-solid/ml-solvent, the “Approximate Solubility” value ([2]; DMSO/2-MeTHF 1:1 (v/v), 50° C.) was >>51.5 mg-solid/ml-solvent and the “Approximate Solubility” value ([2]; DMSO/2-MeTHF 1:1 (v/v), 80° C.) was >>>51.5 mg-solid/ml-solvent. For the same compound, the “Approximate Solubility” value ([2]; DMSO/Acetone 1:1 (v/v), 20° C.) was greater than 30 mg-solid/ml-solvent, the “Approximate Solubility” value ([2]; DMSO/Acetone 1:1 (v/v), 50° C.) was >>30 mg-solid/ml-solvent and the “Approximate Solubility” value ([2]; DMSO/Acetone 1:1 (v/v), 80° C.) was >>>30 mg-solid/ml-solvent. The “Approximate Solubility” value ([2]; DMSO/EtOAc 1:1 (v/v), 50° C.) was greater than 51.5 mg-solid/ml-solvent, the “Approximate Solubility” value ([2]; DMSO/EtOAc 1:1 (v/v), 80° C.) was >>51.5 mg-solid/ml-solvent and the “Approximate Solubility” value ([2]; DMSO/IPA 1:1 (v/v), 80° C.) was greater than 41 mg-solid/ml-solvent. For the same compound, the “Approximate Solubility” value ([2]; DMSO/IPAc 1:1 (v/v), 20° C.) was greater than 32 mg-solid/ml-solvent, the “Approximate Solubility” value ([2]; DMSO/IPAc 1:1 (v/v), 50° C.) was >>32 mg-solid/ml-solvent and the “Approximate Solubility” value ([2]; DMSO/IPAc 1:1 (v/v), 80° C.) was >>>32 mg-solid/ml-solvent. For the same compound, the “Approximate Solubility” value ([2]; DMSO/MIBK 1:1 (v/v), 50° C.) was greater than 50.5 mg-solid/ml-solvent, the “Approximate Solubility” value ([2]; DMSO/MIBK 1:1 (v/v), 80° C.) was >>50.5 mg-solid/ml-solvent and the “Approximate Solubility” value ([2]; DMSO/MeCN 1:1 (v/v), 50° C.) was greater than 33.5 mg-solid/ml-solvent. For the same compound, the “Approximate Solubility” value ([2]; DMSO/MeCN 1:1 (v/v), 80° C.) was >>33.5 mg-solid/ml-solvent, the “Approximate Solubility” value ([2]; HOAC/2-MeTHF 1:1 (v/v), 80° C.) was roughly 15.3 mg-solid/ml-solvent and the “Approximate Solubility” value ([2]; HOAC/Acetone 1:1 (v/v), 50° C.) was greater than 43 mg-solid/ml-solvent. For the same compound, the “Approximate Solubility” value ([2]; HOAC/Acetone 1:1 (v/v), 80° C.) was >>43 mg-solid/ml-solvent, the “Approximate Solubility” value ([2]; HOAC/EtOAc 1:1 (v/v), 50° C.) was roughly 13.8 mg-solid/ml-solvent and the “Approximate Solubility” value ([2]; HOAC/EtOAc 1:1 (v/v), 80° C.) was greater than 41.5 mg-solid/ml-solvent. The “Approximate Solubility” value ([2]; HOAC/IPA 1:1 (v/v), 80° C.) was greater than 44.5 mg-solid/ml-solvent, the “Approximate Solubility” value ([2]; HOAC/IPAc 1:1 (v/v), 50° C.) was roughly 8.3 mg-solid/ml-solvent and the “Approximate Solubility” value ([2]; HOAC/IPAc 1:1 (v/v), 80° C.) was greater than 8.3 mg-solid/ml-solvent. The “Approximate Solubility” value ([2]; HOAC/MIBK 1:1 (v/v), 50° C.) was roughly 22 mg-solid/ml-solvent, the “Approximate Solubility” value ([2]; HOAC/MIBK 1:1 (v/v), 80° C.) was greater than 22 mg-solid/ml-solvent and the “Approximate Solubility” value ([2]; HOAC/MeCN 1:1 (v/v), 20° C.) was greater than 30.5 mg-solid/ml-solvent. For the same compound, the “Approximate Solubility” value ([2]; HOAC/MeCN 1:1 (v/v), 50° C.) was >>30.5 mg-solid/ml-solvent, the “Approximate Solubility” value ([2]; HOAC/MeCN 1:1 (v/v), 80° C.) was >>>30.5 mg-solid/ml-solvent and the “Approximate Solubility” value ([2]; NMP/2-MeTHF 1:1 (v/v), 20° C.) was roughly 12 mg-solid/ml-solvent. The “Approximate Solubility” value ([2]; NMP/2-MeTHF 1:1 (v/v), 80° C.) was roughly 24 mg-solid/ml-solvent, the “Approximate Solubility” value ([2]; NMP/Acetone 1:1 (v/v), 50° C.) was greater than 24 mg-solid/ml-solvent and the “Approximate Solubility” value ([2]; NMP/Acetone 1:1 (v/v), 80° C.) was >>24 mg-solid/ml-solvent. For the same compound, the “Approximate Solubility” value ([2]; NMP/IPAc 1:1 (v/v), 50° C.) was roughly 15 mg-solid/ml-solvent, the “Approximate Solubility” value ([2]; NMP/IPAc 1:1 (v/v), 80° C.) was greater than 44 mg-solid/ml-solvent and the “Approximate Solubility” value ([2]; NMP/MeCN 1:1 (v/v), 80° C.) was greater than 27.5 mg-solid/ml-solvent. For the same compound, the kinetic aqueous solubility [3] was “about 3 mg/mL”, the “% AN” value ([4]; 4° C., 1 month) was 97.1% and the “% LS” value ([4]; 4° C., 1 month) was 100.8%. For the same compound, the “% AN” value ([4]; 25° C./60% RH, 1 month) was 97.1%, the “% LS” value ([4]; 25° C./60% RH, 1 month) was 100.8% and the “% AN” value ([4]; 40° C./75% RH, 1 month) was 97.2%. The “% LS” value ([4]; 40° C./75% RH, 1 month) was 100.7%, the “% AN” value ([4]; 40° C./75% RH, open, 1 month) was 97.1% and the “% LS” value ([4]; 40° C./75% RH, open, 1 month) was 100.0%. The “% AN” value ([4]; 60° C., 1 month) was 97.1%, the “% LS” value ([4]; 60° C., 1 month) was 100.7% and the “% AN” value ([4]; Initial Time) was 97.1%. The chemical stability ([4]; up to about 40° C./75% RH for about 3 months) was “chemically stable”, the chemical stability ([4]; various conditions for about 1 month) was “chemically stable” and the “% AN” value ([4]; −20° C., 1 month) was 96.9%. For the same compound, the “% LS” value ([4]; −20° C., 1 month) was 100.9%, the dissolution [5] was “dissolve rapidly and maintain solubility for about 24 hours” and the “thermodynamic / physical stability of the solid form” value [6] was “most thermodynamically stable form of Compound I phosphate in most solvents”.

From patent publication US20180141939A1, “SOLID FORMS OF A BET INHIBITOR” (Gilead Sciences, Inc., priority 2016, published 2018)
